# Assay results taken from paper PMC11822212, “High-throughput screening identifies Aurora kinase B as a critical therapeutic target for Merkel cell carcinoma” (Nature Communications, 2025).
# Where two headings read alike, the source gives them in different places.
# Tests used:
# [1] = tested on: MKL-2 cells (VP-MCC); format: cell-based, human
# Description: (§1) A non-targeting control (Silencer Select Negative Control No. 2 siRNA) and a positive control (AllStars Cell Death Control siRNA) were used as controls. Lipofectamine RNAiMax (Thermo Fisher Scientific, Grand Island, NY) was obtained as the transfection reagent. […] Three siRNAs per gene were arrayed in 384 well plates, one siRNA per well. […] Cell viability was measured by CellTiter-Glo assay following the manufacturer's instructions (G7572; Promega, Madison, WI, USA) 96 h after siRNA transfection. Assay plates were measured using BMG Pherastar plate reader Three different siRNAs (sequences: [NT], and [NT] targeting INCENP as well as negative non-targeting siRNA control were purchased from Thermo Fisher Scientific (Grand Island, NY).
# [2] = tested on: MCC26 cells (VN-MCC); format: cell-based, human
# Description: as §1
# [3] = tested on: WAGA cells (VP-MCC); assay: qHTS cell viability (CellTiter-Glo, 72 h; primary and follow-up small molecule screen); format: cell-based, human; conditions: for Percent viability: WAGA, 72h
# [4] = tested on: control cell lines (HACAT, HEK293T, CRL-7250, NIH-3T3); assay: qHTS cell viability, control cell lines as a group (mean AUC, Control.avg); format: cell-based; conditions: MIPE library, mean AUC of control cell lines, sheet S2E
# [5] = tested on: VP-MCC cell lines (WAGA, MKL-1, MKL-2); assay: qHTS cell viability, VP-MCC cell lines as a group (mean AUC, VP.MCC.avg); format: cell-based, human
# [6] = tested on: six MCC cell lines and four control cell lines; assay: qHTS cell viability, all 10 cell lines screened; format: cell-based; conditions: MIPE library, Control AUC minus MCC AUC (therapeutic window), sheet S2E
# [7] = tested on: MCC13 cells (VN-MCC); assay: qHTS cell viability (CellTiter-Glo, 72 h; primary and follow-up small molecule screen); format: cell-based, human; conditions: for Percent viability: MCC13, 72h
# [8] = tested on: UISO cells (VN-MCC); assay: as above; format: cell-based, human; conditions: for Percent viability: UISO, 72h
# [9] = tested on: MCC cell lines (WAGA, MKL-1, MKL-2, MCC13, MCC26, UISO); assay: qHTS cell viability, all six MCC cell lines as a group (mean AUC, MCC.avg); format: cell-based, human; conditions: MIPE library, mean AUC of six MCC cell lines, sheet S2E
# [10] = tested on: HEK293T cells; assay: qHTS cell viability (CellTiter-Glo, 72 h; primary screen), control cell line; format: cell-based, human; conditions: MIPE library, 11-point DRC, control cell line, sheet S2E
# [11] = tested on: NIH-3T3 cells; assay: as above; format: cell-based, mouse; conditions: MIPE library, 11-point DRC, control cell line, sheet S2E
# [12] = tested on: HACAT cells; assay: as above; format: cell-based, human; conditions: MIPE library, 11-point DRC, control cell line, sheet S2E
# [13] = tested on: CRL-7250 cells; assay: as above; format: cell-based; conditions: MIPE library, 11-point DRC, control cell line, sheet S2E
# [14] = tested on: MKL-1 cells (VP-MCC); assay: qHTS cell viability (CellTiter-Glo, 72 h; primary and follow-up small molecule screen); format: cell-based, human; conditions: for Percent viability: MKL1, 72h
# [15] = tested on: MCC26 cells (VN-MCC); assay: as above; format: cell-based, human; conditions: for Percent viability: MCC26, 72h
# [16] = tested on: MKL-2 cells (VP-MCC); assay: as above; format: cell-based, human; conditions: for Percent viability: MKL2, 72h
# [17] = tested on: VN-MCC cell lines (MCC13, MCC26, UISO); assay: qHTS cell viability, VN-MCC cell lines as a group (mean AUC, VN.MCC.avg); format: cell-based, human; conditions: MIPE library, sheet S2E
# [18] = tested on: GDSC cancer cell lines; assay: Genomics of Drug Sensitivity in Cancer (GDSC) IC50 comparison across cancer cell lines; format: cell-based, human; conditions: own IC50 estimates compared with public IC50 data
# Description: Palo Alto, CA, USA) for these compounds from our small molecule screen. Following the graphing format in the GDSC database, compounds were ranked by IC50 and plotted in Rstudio using ggplot2, ggrepel, and scales packages. page 9: Supplementary Fig. S6. Au rora kinase inhibi tors mor e potentl y reduc e viability in VP-MCC than VN-MCC. […] Cell viability was measured by CellTiter- Glo at 72 h and by manual cell counts at 144 h. […] Consistent across n = 3 replicates . B) IC50 values (molar) for each aurora kinase inhibitor in each MCC cell line. […] IC50 values from GDSC (Gray-scale and green) were combined with IC50 values determined in our study (purple) and then ranked. n = number of experimental replicates for each cell line.
# [19] = MIPE library, 11-point DRC, sheet S2E
compound,measurement,setting,value
AAAUGUUGAUCUCCUUUCC (chemistry not given here),Percent viability,[1],84.7%
same,Percent viability,[2],97.2%
GCAGGUUCCUUAUCUGUCAtt (GCAGGUUCCUUAUCUGUCATT; chemistry not given here),Percent viability,[1],56.1%
same,Percent viability,[2],85.0%
CAAAGGAAACCAACAAUAAtt (CAAAGGAAACCAACAAUAATT; chemistry not given here),Percent viability,[1],80.7%
same,Percent viability,[2],87.6%
Cc1[nH]c(/C=C2\C(=O)Nc3ccccc32)c(C)c1CCC(=O)O [Orantinib],WAGA_AUC,[3]; [19],255.586
same,Control_Avg_AUC,[4],403.759
same,Control-VP-MCC,"[5]; MIPE library, Control AUC minus VP-MCC AUC (therapeutic window), sheet S2E",118.721
same,VP-MCC_Avg_AUC,"[5]; MIPE library, mean AUC of VP-MCC cell lines, sheet S2E",285.038
same,Control-MCC,[6],60.2668
same,MCC13_AUC,[7]; [19],429.293
same,UISO_AUC,[8]; [19],326.059
same,MCC_Avg_AUC,[9],343.492
same,HEK293T_AUC,[10],367.406
same,NIH3T3_AUC,[11],371.272
same,HACAT_AUC,[12],472.413
same,CRL7250_AUC,[13],403.945
same,MKL1_AUC,[14]; [19],273.854
same,MCC26_AUC,[15]; [19],450.485
same,MKL2_AUC,[16]; [19],325.675
same,Control-VN-MCC,[17]; Control AUC minus VN-MCC AUC (therapeutic window),1.813
same,VN-MCC_Avg_AUC,[17]; mean AUC of VN-MCC cell lines,401.946
"CCn1cc(-c2ccnc3[nH]c(-c4cccc(CN(C)C)c4)cc23)c(-c2ccc(NC(=O)N(C)C)cc2)n1 [GSK-1070916A, reference compound]",Percent viability,[3]; Log (M) -5.33646,2.1%
same,Percent viability,[3]; Log (M) -5.81358,12.6%
same,Percent viability,[3]; Log (M) -6.2907,31.4%
same,Percent viability,[3]; Log (M) -6.76782,40.3%
same,Percent viability,[3]; Log (M) -7.24494,26.0%
same,Percent viability,[3]; Log (M) -7.72207,27.1%
same,Percent viability,[3]; Log (M) -8.19919,28.3%
same,Percent viability,[3]; Log (M) -8.67631,104.6%
same,Percent viability,[3]; Log (M) -9.15343,100.0%
same,Percent viability,[3]; Log (M) -9.63055,103.0%
same,Percent viability,[3]; Log (M) -10.1077,100.0%
same,VP-MCC viability (in words),"[5]; re-tested in triplicate, follow-up screen",consistently and potently reduced VP-MCC viability
same,potency in VP-MCC cell lines versus other human cancer cell lines (GDSC),[18],higher in VP-MCC cell lines than in hundreds of other human cancer cell lines
same,Percent viability,[7]; Log (M) -5.33646,0.9%
same,Percent viability,[7]; Log (M) -5.81358,37.2%
same,Percent viability,[7]; Log (M) -6.2907,74.5%
same,Percent viability,[7]; Log (M) -6.76782,88.4%
same,Percent viability,[7]; Log (M) -7.24494,96.7%
same,Percent viability,[7]; Log (M) -7.72207,113.8%
same,Percent viability,[7]; Log (M) -8.19919,87.1%
same,Percent viability,[7]; Log (M) -8.67631,100.5%
same,Percent viability,[7]; Log (M) -9.15343,112.0%
same,Percent viability,[7]; Log (M) -9.63055,98.4%
same,Percent viability,[7]; Log (M) -10.1077,100.0%
same,Percent viability,[8]; Log (M) -5.33646,0.3%
same,Percent viability,[8]; Log (M) -5.81358,33.6%
same,Percent viability,[8]; Log (M) -6.2907,52.9%
same,Percent viability,[8]; Log (M) -6.76782,71.1%
same,Percent viability,[8]; Log (M) -7.24494,86.6%
same,Percent viability,[8]; Log (M) -7.72207,91.6%
same,Percent viability,[8]; Log (M) -8.19919,90.7%
same,Percent viability,[8]; Log (M) -8.67631,81.3%
same,Percent viability,[8]; Log (M) -9.15343,106.7%
same,Percent viability,[8]; Log (M) -9.63055,103.4%
same,Percent viability,[8]; Log (M) -10.1077,104.7%
same,Percent viability,[14]; Log (M) -5.33646,0.6%
same,Percent viability,[14]; Log (M) -5.81358,0.7%
same,Percent viability,[14]; Log (M) -6.2907,25.3%
same,Percent viability,[14]; Log (M) -6.76782,39.6%
same,Percent viability,[14]; Log (M) -7.24494,24.8%
same,Percent viability,[14]; Log (M) -7.72207,28.8%
same,Percent viability,[14]; Log (M) -8.19919,32.4%
same,Percent viability,[14]; Log (M) -8.67631,60.3%
same,Percent viability,[14]; Log (M) -9.15343,97.5%
same,Percent viability,[14]; Log (M) -9.63055,94.1%
same,Percent viability,[14]; Log (M) -10.1077,98.1%
same,Percent viability,[15]; Log (M) -5.33646,11.3%
same,Percent viability,[15]; Log (M) -5.81358,9.7%
same,Percent viability,[15]; Log (M) -6.2907,42.5%
same,Percent viability,[15]; Log (M) -6.76782,75.5%
same,Percent viability,[15]; Log (M) -7.24494,88.6%
same,Percent viability,[15]; Log (M) -7.72207,92.0%
same,Percent viability,[15]; Log (M) -8.19919,93.6%
same,Percent viability,[15]; Log (M) -8.67631,92.5%
same,Percent viability,[15]; Log (M) -9.15343,92.1%
same,Percent viability,[15]; Log (M) -9.63055,87.6%
same,Percent viability,[15]; Log (M) -10.1077,89.3%
same,Percent viability,[16]; Log (M) -5.33646,1.0%
same,Percent viability,[16]; Log (M) -5.81358,2.3%
same,Percent viability,[16]; Log (M) -6.2907,21.5%
same,Percent viability,[16]; Log (M) -6.76782,34.0%
same,Percent viability,[16]; Log (M) -7.24494,33.8%
same,Percent viability,[16]; Log (M) -7.72207,50.1%
same,Percent viability,[16]; Log (M) -8.19919,59.6%
same,Percent viability,[16]; Log (M) -8.67631,59.6%
same,Percent viability,[16]; Log (M) -9.15343,98.0%
same,Percent viability,[16]; Log (M) -9.63055,107.1%
same,Percent viability,[16]; Log (M) -10.1077,88.8%
